Data taken from patent US7910741B2, “Nitrogen-containing heterocyclic derivatives and drugs containing the same as the active ingredient” (Ono Pharmaceutical Co., Ltd., priority 2003, dated 2011).
Where a name gives a salt, the structure may show the parent alone.

Experiments:
human CCR5 [1] = molecular target: T1, human CCR5 (Homo sapiens, UniProt P51681); assay: Inhibition test on the binding of RANTES to CCR5 (RANTES-induced transient increase of Ca ion in CCR5/CHO cells); format: cell-based; details: inhibition of RANTES (10 nM)-induced Ca2+ transient increase; CCR5/CHO cell
T1 construct: expressed in transfected cells; host or cells: Ba/F3
Protocol: Inhibition test on the binding of RANTES to CCR5:
(1) Isolation of Human CCR5 Gene
Human placental cDNA was prepared using Marathon cDNA amplification kit (Clontech). PCR primers hCCR5Xbal-F1:
Using the human placental cDNA as the template and using Ex Taq (Takara), PCR reaction (2 minutes at 95° C.→(30 seconds at 95° C., 45 seconds at 60° C., 1 minute at 72° C.)×35 times) was carried out. The thus amplified PCR product was subjected to a 1% agarose gel electrophoresis, purified using QIAquick Gel Extraction Kit (QUIAGEN) and then digested with a restriction enzyme XbaI. The digested fragments were ligated to an expression vector pEF-BOS-bsr using DNA Ligation Kit Ver. 2 (Takara) and transformed into Escherichia coli DH5a. […]
The thus established human CCR5 stably over-expressing CHO cell (CCR5/CHO cell) was suspended in Ham's F-12 medium containing FBS (10%) and seeded at a density of […] into a 96 well plate. […] Transient increase in the intracellular Ca^2+ concentration induced by the human RANTES was measured using a Ca^2+ detector for 96 well use (Hamamatsu Photonics), and inhibition ratio (%) of the test compound was calculated by the following calculation formula. Inhibition ratio=(Ec−Ea)/Ec×100 • Ec: measured value of Ca^2+ transient increase by RANTES • Ea: measured value of Ca^2+ transient increase by RANTES when a test compound was added.

human CCR5 [2] = molecular target: T1, human CCR5; assay: Migration test of human CCR5 expressing cell (hCCR5-Ba/F3 cell) against RANTES; format: cell-based
Protocol: Migration test of human CCR5 expressing cell (hCCR5-Ba/F3 cell):
The isolation was carried out according to the method of the isolation of human CCR5 gene as described in the above Example 1.
Ba/F3 cells were statically cultured by using RMMI-1640 medium (Gibco BRL) containing antibiotics (Antibiotic-Antimycotic) (final concentration: penicillin G sodium (100 U/mL), streptomycin sulfate (100 μg/mL), amphotericin B (0.25 μg/mL)) (Gibco BRL), fetal bovine serum (FBS) (10%), 2-mercaptoethanol (55 μM) and mouse interleukin-3 (IL-3) (5 ng/mL) (Pepro Tech, Inc) in a carbon dioxide incubator (temperature: 37° C., CO2 concentration: 5%, humidity: 95%). […]
The human CCR5 expression level in the clone obtained by the method described in the above (1-C) was detected with FAC Sort (trade name, Becton, Dickinson) by detecting the cells with a fluorescence isothiocyanate (FITC)-labeled anti-human CCR5 antibody (BD Pharmingen) and analyzed. […]
Influence of a test compound on the migration ability of the human CCR5 expressing Ba/F3 cell against RANTES, MIP-1α or […] was examined. […] The cells on the microplate were suspended in 100 μl of a phosphate buffer (PBS), and 1/10 portion thereof was further diluted with 90 μl of PBS, moved on a white plate for fluorescence assay, and used as an assay sample for migrated cell numbers (final: 100 μl/well). […]

T1 sequence (P51681 whole entry): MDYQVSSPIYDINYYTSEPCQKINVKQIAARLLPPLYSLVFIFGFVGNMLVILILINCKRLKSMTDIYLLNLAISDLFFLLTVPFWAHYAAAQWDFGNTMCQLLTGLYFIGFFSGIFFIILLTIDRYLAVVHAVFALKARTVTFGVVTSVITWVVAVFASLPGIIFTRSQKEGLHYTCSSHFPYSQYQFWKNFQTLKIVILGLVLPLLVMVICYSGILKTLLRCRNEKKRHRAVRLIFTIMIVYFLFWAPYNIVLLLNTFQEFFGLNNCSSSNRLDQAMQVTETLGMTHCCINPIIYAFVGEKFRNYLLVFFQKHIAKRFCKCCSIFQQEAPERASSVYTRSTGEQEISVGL

## CCCCN(C(=O)C1CCCCC1)C1CCN(Cc2ccc(Oc3ccc(NS(C)(=O)=O)cc3)cc2)CC1 [Example 5(2), N-butyl-N-[1-(4-{4-[(methylsulfonyl)amino]phenoxy}benzyl)piperidin-4-yl]cyclohexanecarboxamide hydrochloride]
Human CCR5 [1]
  IC50: 77 nM

## CCCCN(C(=O)Nc1ccc(F)cc1F)C1CCN(Cc2ccc(Oc3ccc(NS(C)(=O)=O)cc3)cc2)CC1.Cl [Example 23(126), N-[4-(4-{[4-(butyl{[(2,4-difluorophenyl)amino]carbonyl}amino)-1-piperidinyl]methyl}phenoxy)phenyl]methanesulfonamide hydrochloride]
Human CCR5 [2]; concentration 10 μM
  cell migration inhibition ratio: 42%
Human CCR5 [2]; concentration 30 μM
  cell migration inhibition ratio: 77%
